According to patent US20070092474A1, “Carnitine salt, preliposome which contains it and dermocosmetic formula for topical use based upon said carnitine salt” (priority 2003, published 2007):
Where “and” joins values, the source holds several entries; their conditions need not be identical. Equal entries are not always repeated.

System: skin blemishes caused by cellulite and localised adiposity
Test: Plicometry: skin plica thickness measured with a plicometer, dermatological test of the cosmetic gel
Type: in vivo, female volunteers
Details: same tests repeated with the single reactant; site and time point of each value not given
Method: A dermatological test was carried out on 25 female volunteers between 18 and 65 years of age, with the backing of the Department of Physiological and Pharmacological Sciences of the university of Pavia. The investigation aimed to check the modification of three anatomical-physiological parameters, qualifying the unaesthetic-functional aspect connected to the manifestation of so-called cellulite and subcutaneous hypertriglyceridaemia: measurement of the skin folds, measurement of the circumference of the thighs, thermographic skin measurement.
The test stretched out over 60 days with the continual daily application of the aforementioned preparation of cosmetic gel. The measurements were carried out after 15, 30 and 60 days. The detail of the test protocol and of the results obtained is shown hereafter.
25 female volunteers aged between 18 and 65, with the presence of skin blemishes caused by cellulite and localised adiposity, were selected according to the following criteria: good general state of health, absence of skin pathologies, not being under medication, commitment not to vary the normal daily routine, no medical history of atopy.
The samples were tested by uniformly applying them on “Glute SX Glute DJ (Femoris Posto SX Femoris Posto DX Femoris Ant. SX Femoris Ant. DX” every day at least once per day for the entire duration of the test.
At the time of inclusion in the study and during the subsequent checks after 15 days (T15), after 30 days (T30) and after 60 days (T60) of treatment the following instrumental measurements were taken: • plicometry (through a plicometer) • thigh circumference (through a measuring tape broken into millimetres) • contact thermography (through liquid crystal thermographic plates).
In particular, the plicometer used in the test constitutes the suitable instrument for measuring the skin plica thickness. Skin plicometry provides numerical data of particular use when the panniculopathic process of the cellulite is associated with localised adiposity.

C[N+](C)(C)CC(O)CC(=O)O (stereo not shown) [Carnitine (II), 3-carboxy-2-hydroxy-propyl trimethyl amine, reference compound]
PLICOMETRY SX, average values: 25.7 and 23.7
